Test results published in patent publication US20100267561A1, “HERBICIDAL PYRIDAZINONE DERIVATIVES” (priority 2007, published 2010).

Key:
Format in all cases: in vivo
[1] = test system: Italian ryegrass (Lolium multiflorum); experiment: Test B pre-/postemergence plant response
Summary of the method: (§1)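 Seeds were sown and sprayed preemergence, while plants at 2 to 18 cm (1- to 4-leaf stage) got postemergence sprays. Compounds were formulated in a non-phytotoxic solvent mixture with surfactant. After 13 to 15 days in a greenhouse, injury was rated visually against untreated controls, 0 (no effect) to 100 (complete control).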

[2] = test system: Russian thistle (Salsola iberica); experiment: Test B pre-/postemergence plant response; conditions: Preemergence; for Russian Thistle plant response rating: scale 0 to 100
Summary of the method: as §1

[3] = test system: bermudagrass (Cynodon dactylon); experiment: Test B pre-/postemergence plant response
Summary of the method: as §1

[4] = test system: cocklebur (Xanthium strumarium); experiment: Test B pre-/postemergence plant response
Summary of the method: as §1

[5] = test system: eastern black (E.B.) nightshade (Solanum ptycanthum); experiment: Test B pre-/postemergence plant response; conditions: Preemergence; for Nightshade, E. B. plant response rating: scale 0 to 100
Summary of the method: as §1

[6] = test system: goosegrass (Eleusine indica); experiment: Test B pre-/postemergence plant response
Summary of the method: as §1

[7] = test system: green foxtail (Setaria viridis); experiment: Test B pre-/postemergence plant response
Summary of the method: as §1

[8] = test system: johnsongrass (Sorghum halepense); experiment: Test B pre-/postemergence plant response
Summary of the method: as §1

[9] = test system: large crabgrass (Digitaria sanguinalis); experiment: Test B pre-/postemergence plant response
Summary of the method: as §1

[10] = test system: morningglory (Ipomoea coccinea); experiment: Test B pre-/postemergence plant response
Summary of the method: as §1

soybean (Glycine max) = experiment: Test B pre-/postemergence plant response
Summary of the method: as §1

[11] = test system: surinam grass (Brachiaria decumbens); experiment: Test B pre-/postemergence plant response
Summary of the method: as §1

[12] = test system: wheat (Triticum aestivum); experiment: Test B pre-/postemergence plant response
Summary of the method: as §1

[13] = test system: chickweed (Stellaria media); experiment: Test B postemergence plant response; conditions: for Plant response rating, Chickweed: Postemergence
Summary of the method: (§2)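 Following treatment of plants 2 to 18 cm high after emergence, pots were held under glass for 13 to 15 days; efficacy was then graded visually, 100 denoting complete control and a dash no test result.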

[14] = test system: windgrass (Apera spica-venti); experiment: Test B postemergence plant response; conditions: for Windgrass plant response rating: postemergence, 0-100 scale; for Plant response rating, Windgrass: Postemergence
Summary of the method: as §2

[15] = test system: winter barley (Hordeum vulgare); experiment: Test B postemergence plant response; conditions: for Plant response rating, Barley: Postemergence, scale 0 to 100, 0 no effect, 100 complete control
Summary of the method: as §2

[16] = 8 g ai/ha, postemergence, 0-100 scale
[17] = 16 g ai/ha, postemergence, 0-100 scale
[18] = Postemergence, 31 g ai/ha, scale 0 to 100
[19] = Postemergence, 62 g ai/ha, scale 0 to 100, 0 no effect, 100 complete control
[20] = Preemergence, 31 g ai/ha, scale 0 to 100 (0 no effect, 100 complete control)
[21] = Preemergence, 62 g ai/ha, 0 to 100 scale, 0 no effect, 100 complete control
[22] = Preemergence, 8 g ai/ha, scale 0 to 100
[23] = Preemergence, 16 g ai/ha, scale 0 to 100
[24] = 31 g ai/ha, scale 0 to 100 (0 no effect, 100 complete control)
[25] = 62 g ai/ha, 0 to 100 scale, 0 no effect, 100 complete control
[26] = Postemergence, 16 g ai/ha, scale 0 to 100
[27] = 62 g ai/ha, scale 0 to 100, 0 no effect, 100 complete control

CCCc1cc(-c2ccc(Cl)cc2)nn1-c1c(O)cnn(C)c1=O [Compound 76]
Ryegrass, Italian plant response rating [1, 16]: 65 | Ryegrass, Italian plant response rating [1, 17]: 98 | Plant response rating, Ryegrass, Italian [1, 18]: 100 | Plant response rating, Ryegrass, Italian [1, 19]: 100 | Plant response rating, Ryegrass, Italian [1, 20]: 95 | Plant response rating, Ryegrass, Italian [1, 21]: 95 | Ryegrass, Italian plant response rating [1, 22]: 75 | Ryegrass, Italian plant response rating [1, 23]: 75 | Plant response rating, Russian Thistle [2, 24]: 0 | Plant response rating, Russian Thistle [2, 25]: 0 | Russian Thistle plant response rating ([2]; 8 g ai/ha): 0 | Russian Thistle plant response rating ([2]; 16 g ai/ha): 0 | Bermudagrass plant response rating [3, 16]: 70 | Plant response rating, Bermudagrass [3, 26]: 80 | Plant response rating, Bermudagrass [3, 18]: 85 | Plant response rating, Bermudagrass [3, 19]: 90 | Bermudagrass plant response rating ([3]; Preemergence, 8 g ai/ha, scale 0 to 100 (0 no effect, 100 complete control)): 0 | Bermudagrass plant response rating ([3]; Preemergence, 16 g ai/ha, scale 0 to 100 (0 no effect, 100 complete control)): 20 | Plant response rating, Bermudagrass [3, 20]: 100 | Plant response rating, Bermudagrass [3, 21]: 100 | Cocklebur plant response rating [4, 16]: 0 | Plant response rating, Cocklebur [4, 26]: 0 | Plant response rating, Cocklebur [4, 18]: 0 | Plant response rating, Cocklebur [4, 19]: 0 | Plant response rating, Cocklebur [4, 20]: 0 | Plant response rating, Cocklebur [4, 21]: 0 | Cocklebur plant response rating [4, 22]: 0 | Cocklebur plant response rating [4, 23]: 0 | Plant response rating, Nightshade, E. B. [5, 24]: 0 | Plant response rating, Nightshade, E. B. [5, 25]: 0 | Nightshade, E. B. plant response rating ([5]; 8 g ai/ha): 0 | Nightshade, E. B. plant response rating ([5]; 16 g ai/ha): 0 | Goosegrass plant response rating [6, 16]: 20 | Goosegrass plant response rating [6, 17]: 60 | Plant response rating, Goosegrass [6, 18]: 70 | Plant response rating, Goosegrass [6, 19]: 75 | Plant response rating, Goosegrass [6, 20]: 80 | Plant response rating, Goosegrass [6, 21]: 100 | Goosegrass plant response rating [6, 22]: 20 | Goosegrass plant response rating [6, 23]: 75 | Foxtail, Green plant response rating [7, 16]: 65 | Plant response rating, Foxtail, Green [7, 26]: 85 | Plant response rating, Foxtail, Green [7, 18]: 95 | Plant response rating, Foxtail, Green [7, 19]: 100 | Plant response rating, Foxtail, Green [7, 20]: 90 | Plant response rating, Foxtail, Green [7, 21]: 90 | Foxtail, Green plant response rating [7, 22]: 40 | Foxtail, Green plant response rating [7, 23]: 65 | Johnsongrass plant response rating [8, 16]: 65 | Johnsongrass plant response rating [8, 17]: 75 | Plant response rating, Johnsongrass [8, 18]: 95 | Plant response rating, Johnsongrass [8, 19]: 98 | Plant response rating, Johnsongrass [8, 20]: 70 | Plant response rating, Johnsongrass [8, 21]: 85 | Johnsongrass plant response rating [8, 22]: 0 | Johnsongrass plant response rating [8, 23]: 0 | Crabgrass, Large plant response rating [9, 16]: 20 | Plant response rating, Crabgrass, Large [9, 26]: 85 | Plant response rating, Crabgrass, Large [9, 18]: 95 | Plant response rating, Crabgrass, Large [9, 19]: 100 | Plant response rating, Crabgrass, Large [9, 20]: 55 | Plant response rating, Crabgrass, Large [9, 21]: 98 | Crabgrass, Large plant response rating [9, 22]: 0 | Crabgrass, Large plant response rating [9, 23]: 20 | Morningglory plant response rating [10, 16]: 0 | Morningglory plant response rating [10, 17]: 0 | Plant response rating, Morningglory [10, 18]: 0 | Plant response rating, Morningglory [10, 19]: 0 | Plant response rating, Morningglory [10, 20]: 0 | Plant response rating, Morningglory [10, 21]: 0 | Morningglory plant response rating [10, 22]: 0 | Morningglory plant response rating [10, 23]: 0 | Soybean plant response rating (soybean (Glycine max); [16]): 0 | Soybean plant response rating (soybean (Glycine max); [17]): 0 | Plant response rating, Soybean (soybean (Glycine max); [18]): 0 | Plant response rating, Soybean (soybean (Glycine max); [19]): 0 | Plant response rating, Soybean (soybean (Glycine max); [20]): 0 | Plant response rating, Soybean (soybean (Glycine max); [21]): 0 | Soybean plant response rating (soybean (Glycine max); [22]): 0 | Soybean plant response rating (soybean (Glycine max); [23]): 0 | Surinam Grass plant response rating [11, 16]: 65 | Surinam Grass plant response rating [11, 17]: 90 | Plant response rating, Surinam Grass [11, 18]: 100 | Plant response rating, Surinam Grass [11, 19]: 100 | Plant response rating, Surinam Grass [11, 20]: 95 | Plant response rating, Surinam Grass [11, 21]: 100 | Surinam Grass plant response rating [11, 22]: 65 | Surinam Grass plant response rating [11, 23]: 90 | Wheat plant response rating [12, 16]: 10 | Wheat plant response rating [12, 17]: 30 | Plant response rating, Wheat [12, 18]: 30 | Plant response rating, Wheat [12, 19]: 35 | Plant response rating, Wheat [12, 20]: 0 | Plant response rating, Wheat [12, 21]: 0 | Wheat plant response rating [12, 23]: 0 | Chickweed plant response rating [13, 16]: 0 | Plant response rating, Chickweed ([13]; 16 g ai/ha, scale 0 to 100): 0 | Plant response rating, Chickweed ([13]; 31 g ai/ha, scale 0 to 100): 0 | Plant response rating, Chickweed [13, 27]: 0 | Windgrass plant response rating ([14]; 8 g ai/ha): 30 | Windgrass plant response rating ([14]; 16 g ai/ha): 80 | Plant response rating, Windgrass ([14]; 31 g ai/ha, scale 0 to 100): 80 | Plant response rating, Windgrass [14, 27]: 90 | Barley plant response rating [15, 16]: 0 | Plant response rating, Barley ([15]; 16 g ai/ha): 0 | Plant response rating, Barley ([15]; 31 g ai/ha): 5 | Plant response rating, Barley ([15]; 62 g ai/ha): 25
